Test results from US10294202B2, “Pyrrolidinones as herbicides” (FMC Corporation, priority 2013, dated 2019).

Tests used:
ducksalad = assay: Test C flooded paddy test; assay type: in vivo, Heteranthera limosa; details: Flood
In short: (§1)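 Visual injury scored against controls after 13 to 15 days in the greenhouse, using 0 (no effect) to 100 (complete control). Test compounds went straight into paddy water held 3 cm above the soil surface on 2-leaf-stage plants, with that flood depth maintained for the whole test.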

sedge, umbrella = assay: Test C flooded paddy test; assay type: in vivo, Cyperus difformis; details: Flood
In short: as §1

kochia = assay: Test A pre-/postemergence herbicide test; assay type: in vivo, Kochia scoparia; details: for Plant response rating, Kochia: 0 to 100 scale
In short: (§2)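 Seeds in loam–sand blend received preemergence directed soil spray; separately, plants 2–10 cm at one- to two-leaf stage received postemergence spray, both with test chemicals in non-phytotoxic solvent with surfactant. After ~10 days in greenhouse, injury rated visually against untreated controls, 0 (no effect) to 100 (complete control).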

blackgrass = assay: Test A postemergence herbicide test; assay type: in vivo, Alopecurus myosuroides
In short: (§3)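 Ratings compare treated with untreated plants roughly 10 days after a postemergence application made at the one- to two-leaf stage. Scoring uses 0–100, where 0 means no effect and 100 complete control.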

ryegrass, Italian = assay: Test A pre-/postemergence herbicide test; assay type: in vivo, Lolium multiflorum; details: for Plant response rating, Ryegrass, Italian: 0 to 100 scale
In short: as §2

galium = assay: Test A postemergence herbicide test; assay type: in vivo, Galium aparine; details: for Plant response rating, Galium: 125 g ai/ha, 0 to 100 scale; for Galium plant response rating (0 to 100 scale, 0 is no effect, 100 is complete control): 500 g ai/ha
In short: as §3

ragweed = assay: Test A pre-/postemergence herbicide test; assay type: in vivo, Ambrosia elatior; details: for Plant response rating, Ragweed: 0 to 100 scale
In short: as §2

rice = assay: Test C flooded paddy test; assay type: in vivo, Oryza sativa; details: Flood
In short: as §1

[1] = 62 g ai/ha, scale of 0 to 100 where 0 is no effect and 100 is complete control, 13 to 15 days
[2] = 125 g ai/ha, scale of 0 to 100 where 0 is no effect and 100 is complete control, 13 to 15 days
[3] = 125 g ai/ha, visual rating, 0 no effect, 100 complete control, approximately 10 days, preemergence
[4] = Postemergence, 125 g ai/ha, 0 no effect, 100 complete control
[5] = 250 g ai/ha, scale of 0 to 100 where 0 is no effect and 100 is complete control, 13 to 15 days
[6] = Postemergence, 125 g ai/ha, 0 is no effect, 100 is complete control
[7] = preemergence, 500 g ai/ha, 0 is no effect and 100 is complete control
[8] = 125 g ai/ha, 0 to 100 scale, 0 is no effect, 100 is complete control
[9] = 0 is no effect, 100 is complete control

O=C1NCC(c2ccc(F)cc2)C1C(=O)Nc1ccc(F)c(F)c1F (racemic) [Compound 120]
60: Plant response rating, Kochia (kochia; [3]) | Plant response rating, Kochia (kochia; [4]) | Galium plant response rating (0 to 100 scale, 0 is no effect, 100 is complete control) (galium) | Plant response rating, Ragweed (ragweed; [3])
70: Kochia plant response rating (0 to 100 scale, 0 is no effect, 100 is complete control) (kochia; Postemergence, 500 g ai/ha)
100: Plant response rating, Ducksalad (ducksalad; [1]) | Plant response rating, Ducksalad (ducksalad; [2]) | Plant response rating, Ducksalad (ducksalad; 250 g ai/ha, scale 0 to 100) | Plant response rating, Ducksalad (ducksalad; 500 g ai/ha, scale 0 to 100)
80: Plant response rating, Kochia (kochia; preemergence, 500 g ai/ha) | Plant response rating, Ragweed (ragweed; preemergence, 500 g ai/ha)
40: Plant response rating, Blackgrass (blackgrass; 125 g ai/ha, 0 to 100 scale, 0 no effect, 100 complete control)
50: Plant response rating, Blackgrass (blackgrass; 500 g ai/ha, 0 to 100 scale (0 no effect, 100 complete control)) | Ryegrass, Italian plant response rating (0 to 100 scale, 0 is no effect, 100 is complete control) (ryegrass, Italian; Postemergence, 500 g ai/ha) | Plant response rating, Ryegrass, Italian (ryegrass, Italian; preemergence, 500 g ai/ha) | Plant response rating, Galium (galium; 0 no effect, 100 complete control) | Ragweed plant response rating (0 to 100 scale, 0 is no effect, 100 is complete control) (ragweed; Postemergence, 500 g ai/ha)
0: Plant response rating, Sedge, Umbrella (sedge, umbrella; [1]) | Plant response rating, Sedge, Umbrella (sedge, umbrella; [2]) | Plant response rating, Sedge, Umbrella (sedge, umbrella; 250 g ai/ha, scale 0 to 100) | Plant response rating, Sedge, Umbrella (sedge, umbrella; 500 g ai/ha, scale 0 to 100) | Plant response rating, Rice (rice; [1]) | Plant response rating, Rice (rice; [2]) | Plant response rating, Rice (rice; 250 g ai/ha, scale 0 to 100) | Plant response rating, Rice (rice; 500 g ai/ha, scale 0 to 100)
30: Plant response rating, Ryegrass, Italian (ryegrass, Italian; [3]) | Plant response rating, Ryegrass, Italian (ryegrass, Italian; [4]) | Plant response rating, Ragweed (ragweed; [4])

O=C1NCC(c2cccc(C(F)F)c2)C1C(=O)Nc1ccccc1F (racemic) [Compound 210]
20: Plant response rating, Kochia (kochia; [6])
60: Kochia plant response rating (0 to 100 scale, 0 is no effect, 100 is complete control) (kochia; Postemergence, 500 g ai/ha) | Blackgrass plant response rating (0 to 100 scale, 0 is no effect, 100 is complete control) (blackgrass; 500 g ai/ha) | Galium plant response rating (0 to 100 scale, 0 is no effect, 100 is complete control) (galium)
0: Plant response rating, Ducksalad (ducksalad; [2]) | Plant response rating, Sedge, Umbrella (sedge, umbrella; [2]) | Plant response rating, Sedge, Umbrella (sedge, umbrella; [5]) | Plant response rating, Sedge, Umbrella (sedge, umbrella; 500 g ai/ha, scale 0 to 100) | Plant response rating, Sedge, Umbrella (sedge, umbrella; 1000 g ai/ha, scale 0 to 100) | Plant response rating, Kochia (kochia; [3]) | Plant response rating, Ryegrass, Italian (ryegrass, Italian; [3]) | Plant response rating, Ryegrass, Italian (ryegrass, Italian; [6]) | Plant response rating, Ragweed (ragweed; [3]) | Plant response rating, Ragweed (ragweed; [6]) | Ragweed plant response rating (0 to 100 scale, 0 is no effect, 100 is complete control) (ragweed; Postemergence, 500 g ai/ha) | Plant response rating, Rice (rice; [2]) | Plant response rating, Rice (rice; [5]) | Plant response rating, Rice (rice; 500 g ai/ha, scale 0 to 100) | Plant response rating, Rice (rice; 1000 g ai/ha, scale 0 to 100)
100: Plant response rating, Ducksalad (ducksalad; 500 g ai/ha, scale 0 to 100) | Plant response rating, Ducksalad (ducksalad; 1000 g ai/ha, scale 0 to 100)
30: Plant response rating, Kochia (kochia; [7]) | Plant response rating, Blackgrass (blackgrass; [8]) | Plant response rating, Galium (galium; [9]) | Plant response rating, Ragweed (ragweed; [7])
80: Plant response rating, Ducksalad (ducksalad; [5])
50: Ryegrass, Italian plant response rating (0 to 100 scale, 0 is no effect, 100 is complete control) (ryegrass, Italian; Postemergence, 500 g ai/ha) | Plant response rating, Ryegrass, Italian (ryegrass, Italian; [7])

O=C1NC[C@H](c2cccc(C(F)(F)F)c2)[C@H]1C(=O)Nc1ccccc1F [Compound 204, (3R,4S)—N-(2-fluorophenyl)-2-oxo-4-[3-(trifluoromethyl)phenyl]-3-pyrrolidinecarboxamide]
20: Plant response rating, Kochia (kochia; [6]) | Plant response rating, Ryegrass, Italian (ryegrass, Italian; [3])
70: Plant response rating, Blackgrass (blackgrass; [8])
0: Plant response rating, Sedge, Umbrella (sedge, umbrella; [2]) | Plant response rating, Sedge, Umbrella (sedge, umbrella; [5]) | Plant response rating, Sedge, Umbrella (sedge, umbrella; 500 g ai/ha, scale 0 to 100) | Plant response rating, Sedge, Umbrella (sedge, umbrella; 1000 g ai/ha, scale 0 to 100) | Plant response rating, Kochia (kochia; [3]) | Plant response rating, Ragweed (ragweed; [3]) | Plant response rating, Ragweed (ragweed; [6]) | Ragweed plant response rating (0 to 100 scale, 0 is no effect, 100 is complete control) (ragweed; Postemergence, 500 g ai/ha) | Plant response rating, Rice (rice; [2]) | Plant response rating, Rice (rice; [5]) | Plant response rating, Rice (rice; 500 g ai/ha, scale 0 to 100)
80: Plant response rating, Kochia (kochia; [7]) | Blackgrass plant response rating (0 to 100 scale, 0 is no effect, 100 is complete control) (blackgrass; 500 g ai/ha) | Plant response rating, Ragweed (ragweed; [7])
95: Plant response rating, Ducksalad (ducksalad; [5])
100: Plant response rating, Ducksalad (ducksalad; 500 g ai/ha, scale 0 to 100) | Plant response rating, Ducksalad (ducksalad; 1000 g ai/ha, scale 0 to 100)
10: Plant response rating, Rice (rice; 1000 g ai/ha, scale 0 to 100)
60: Kochia plant response rating (0 to 100 scale, 0 is no effect, 100 is complete control) (kochia; Postemergence, 500 g ai/ha) | Galium plant response rating (0 to 100 scale, 0 is no effect, 100 is complete control) (galium)
50: Plant response rating, Ducksalad (ducksalad; [2]) | Ryegrass, Italian plant response rating (0 to 100 scale, 0 is no effect, 100 is complete control) (ryegrass, Italian; Postemergence, 500 g ai/ha) | Plant response rating, Ryegrass, Italian (ryegrass, Italian; [7]) | Plant response rating, Galium (galium; [9])
30: Plant response rating, Ryegrass, Italian (ryegrass, Italian; [6])

O=C1NC[C@H](c2cccc(C(F)(F)F)c2)[C@H]1C(=O)Nc1cccc(F)c1F [Compound 206]
90: Plant response rating, Ducksalad (ducksalad; [2])
80: Plant response rating, Kochia (kochia; [7]) | Blackgrass plant response rating (0 to 100 scale, 0 is no effect, 100 is complete control) (blackgrass; 500 g ai/ha) | Plant response rating, Ryegrass, Italian (ryegrass, Italian; [7]) | Galium plant response rating (0 to 100 scale, 0 is no effect, 100 is complete control) (galium)
100: Plant response rating, Ducksalad (ducksalad; [5]) | Plant response rating, Ducksalad (ducksalad; 500 g ai/ha, scale 0 to 100) | Plant response rating, Ducksalad (ducksalad; 1000 g ai/ha, scale 0 to 100)
0: Plant response rating, Sedge, Umbrella (sedge, umbrella; [2]) | Plant response rating, Sedge, Umbrella (sedge, umbrella; [5]) | Plant response rating, Sedge, Umbrella (sedge, umbrella; 500 g ai/ha, scale 0 to 100) | Plant response rating, Sedge, Umbrella (sedge, umbrella; 1000 g ai/ha, scale 0 to 100) | Plant response rating, Ragweed (ragweed; [6]) | Plant response rating, Rice (rice; [2]) | Plant response rating, Rice (rice; [5])
70: Plant response rating, Kochia (kochia; [3]) | Plant response rating, Kochia (kochia; [6]) | Kochia plant response rating (0 to 100 scale, 0 is no effect, 100 is complete control) (kochia; Postemergence, 500 g ai/ha) | Plant response rating, Blackgrass (blackgrass; [8]) | Plant response rating, Galium (galium; [9]) | Plant response rating, Ragweed (ragweed; [7])
40: Plant response rating, Ryegrass, Italian (ryegrass, Italian; [3])
15: Plant response rating, Rice (rice; 500 g ai/ha, scale 0 to 100) | Plant response rating, Rice (rice; 1000 g ai/ha, scale 0 to 100)
50: Plant response rating, Ryegrass, Italian (ryegrass, Italian; [6]) | Ragweed plant response rating (0 to 100 scale, 0 is no effect, 100 is complete control) (ragweed; Postemergence, 500 g ai/ha)
60: Ryegrass, Italian plant response rating (0 to 100 scale, 0 is no effect, 100 is complete control) (ryegrass, Italian; Postemergence, 500 g ai/ha) | Plant response rating, Ragweed (ragweed; [3])
